Measured values from patent publication US20240209016A1, “FLUORESCENT NUCLEOSIDE PHOSPHATES” (STEALTH LABELS BIOTECH AB, priority 2021, published 2024).

System: Huh-7 cells
Assay: alamarBlue cell viability (metabolic activity) assay
Format: cell-based
Conditions: analogous experiments, FIG. 10
Method: The Huh-7 human liver cell line was used.
After 24 h exposure with compounds 7 or 17, the conditioned medium was removed from the cells and used for the LDH leakage assay (see below). Freshly prepared alamarBlue cell viability reagent (Invitrogen, diluted 1:10 in CCM) was added, followed by incubation for 3 h at 37° C. and 5% CO2. The resulting resorufin fluorescence was read using an Optima Fluostar plate reader (BMG Labtech) Ex: 544 nm/Em: 590 nm. Dimethyl sulfoxide 5% and CCM alone (i.e. compounds 7 and 17 0 μM) were used as positive and negative controls for cell death, respectively.

## N#Cc1ccc2c(c1)Nc1ncnc3c1c-2cn3[C@@H]1O[C@H](COP(=O)(O)O)[C@@H](O)[C@H]1O [7a, ((2R,3S,4R,5R)-5-(8-cyano-2,3,5,6-tetraazaaceanthrylen-2(6H)-yl)-3,4-dihydroxytetrahydrofuran-2-yl)methyl dihydrogen phosphate]
  toxicity (cytotoxicity assessment, monophosphate): non-toxic
